# Where “and” joins values, the source holds several entries; their conditions need not be identical. Equal entries are not always repeated.
# Tested on: 233499-124-R-J3-PDC complex spheroid viability
# Test: Anticancer human tumor 233499-124-R-J3-PDC patient-derived colon adenocarcinoma cell line growth inhibition [CLK]
# Details: for viability, T/C: stronger effect = lower value
# Summary of the method: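 Patient-derived tumor cells grown as complex spheroids with HUVEC endothelial cells and mesenchymal stem cells, treated with drug combinations. Concentrations descend in half-log steps from near clinical Cmax, or from 10 microM if Cmax unknown.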
# [1] = curve of first compound, second compound 0.0316 µM
# [2] = curve of first compound, second compound 0.1 µM
# [3] = curve of first compound, second compound 0.316 µM
# [4] = curve of first compound, second compound 1 µM
# [5] = curve of first compound, second compound 3.16 µM
# [6] = curve of first compound, second compound 10 µM
# [7] = second compound 0.0316 µM, first compound 0.0316 µM
# [8] = second compound 0.0316 µM, first compound 0.1 µM
# [9] = second compound 0.0316 µM, first compound 0.316 µM
# [10] = second compound 0.0316 µM, first compound 1 µM
# [11] = second compound 0.0316 µM, first compound 3.16 µM
# [12] = second compound 0.0316 µM, first compound 10 µM
# [13] = second compound 0.1 µM, first compound 0.0316 µM
# [14] = second compound 0.1 µM, first compound 0.1 µM
# [15] = second compound 0.1 µM, first compound 0.316 µM
# [16] = second compound 0.1 µM, first compound 1 µM
# [17] = second compound 0.1 µM, first compound 3.16 µM
# [18] = second compound 0.1 µM, first compound 10 µM
# [19] = second compound 0.316 µM, first compound 0.0316 µM
# [20] = second compound 0.316 µM, first compound 0.1 µM
# [21] = second compound 0.316 µM, first compound 0.316 µM
# [22] = second compound 0.316 µM, first compound 1 µM
# [23] = second compound 0.316 µM, first compound 3.16 µM
# [24] = second compound 0.316 µM, first compound 10 µM
# [25] = second compound 1 µM, first compound 0.0316 µM
# [26] = second compound 1 µM, first compound 0.1 µM
# [27] = second compound 1 µM, first compound 0.316 µM
# [28] = second compound 1 µM, first compound 1 µM
# [29] = second compound 1 µM, first compound 3.16 µM
# [30] = second compound 1 µM, first compound 10 µM
# [31] = second compound 3.16 µM, first compound 0.0316 µM
# [32] = second compound 3.16 µM, first compound 0.1 µM
# [33] = second compound 3.16 µM, first compound 0.316 µM
# [34] = second compound 3.16 µM, first compound 1 µM
# [35] = second compound 3.16 µM, first compound 3.16 µM
# [36] = second compound 3.16 µM, first compound 10 µM
# [37] = second compound 10 µM, first compound 0.0316 µM
# [38] = second compound 10 µM, first compound 0.1 µM
# [39] = second compound 10 µM, first compound 0.316 µM
# [40] = second compound 10 µM, first compound 1 µM
# [41] = second compound 10 µM, first compound 3.16 µM
# [42] = second compound 10 µM, first compound 10 µM
# 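Also: spheroids exposed to the drug combinations for seven days.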
# 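For viability, T/C in this document: percent viability relative to DMSO vehicle control wells taken as 100%.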
structure (smiles),measurement,setting,value
COc1cccc2c1C(=O)c1c(O)c3c(c(O)c1C2=O)CC(O)(C(=O)CO)CC3OC1CC(N)C(O)C(C)O1 (stereo unspecified) + CNC(=O)c1ccc(Nc2nc(OC3CCCC3)c3c(-c4ccc5nc(C)oc5c4)c[nH]c3n2)c(OC)c1,IC50,[1],336 nM
same,IC50,[2],286 nM
same,IC50,[3],155 nM
same,IC50,[4],142 nM
same,IC50,[5],115 nM
same,IC50,[6],79.9 nM
same,"viability, T/C",[7],92%
same,"viability, T/C",[8],85.1%
same,"viability, T/C",[9],38.5%
same,"viability, T/C",[10],38.5%
same,"viability, T/C",[11],13.5%
same,"viability, T/C",[12],6.81%
same,"viability, T/C",[13],71.3%
same,"viability, T/C",[14],71.7%
same,"viability, T/C",[15],40.7%
same,"viability, T/C",[16],34.2%
same,"viability, T/C",[17],17%
same,"viability, T/C",[18],2.92%
same,"viability, T/C",[19],61.7%
same,"viability, T/C",[20],62.1%
same,"viability, T/C",[21],33.8%
same,"viability, T/C",[22],13.8%
same,"viability, T/C",[23],4.56%
same,"viability, T/C",[24],1.31%
same,"viability, T/C",[25],51.1%
same,"viability, T/C",[26],75.6%
same,"viability, T/C",[27],19.3%
same,"viability, T/C",[28],1.71%
same,"viability, T/C",[29],1.27%
same,"viability, T/C",[30],0.38%
same,"viability, T/C",[31],55%
same,"viability, T/C",[32],53%
same,"viability, T/C",[33],27.4%
same,"viability, T/C",[34],1.95%
same,"viability, T/C",[35],0.8%
same,"viability, T/C",[36],0.35%
same,"viability, T/C",[37],56.1%
same,"viability, T/C",[38],48.5%
same,"viability, T/C",[39],11.7%
same,"viability, T/C",[40],0.74%
same,"viability, T/C",[41],0.74%
same,"viability, T/C",[42],0.32%
O=C(c1cc(Cc2n[nH]c(=O)c3ccccc23)ccc1F)N1CCN(C(=O)C2CC2)CC1,"viability, T/C",compound 0.0316 µM,89.8% and 102%
same,"viability, T/C",compound 0.1 µM,91.5% and 89.6%
same,"viability, T/C",compound 0.316 µM,104%
same,"viability, T/C",compound 1 µM,105% and 92.8%
same,"viability, T/C",compound 3.16 µM,107%
same,"viability, T/C",compound 10 µM,86% and 115%
same,IC50,curve of compound,> 10000 nM
COc1ccc([C@@H](O)c2cc(-c3ncnc4cc(N5CCOCC5)ccc34)c(F)cc2Cl)nn1 + CN1CCN(c2cc(C(=O)Nc3cc4cc(-c5cnn(C)c5)ccc4cn3)ccn2)CC1,IC50,[1],> 10000 nM
same,IC50,[2],9830 nM
same,IC50,[3],8500 nM
same,IC50,[4],< 31.6 nM
same,IC50,[5],< 31.6 nM
same,IC50,[6],< 31.6 nM
same,"viability, T/C",[7],101%
same,"viability, T/C",[8],99.3%
same,"viability, T/C",[9],102%
same,"viability, T/C",[10],105%
same,"viability, T/C",[11],83%
same,"viability, T/C",[12],56.7%
same,"viability, T/C",[13],98.7%
same,"viability, T/C",[14],95%
same,"viability, T/C",[15],105%
same,"viability, T/C",[16],93.7%
same,"viability, T/C",[17],78.9%
same,"viability, T/C",[18],49.5%
same,"viability, T/C",[19],80.5%
same,"viability, T/C",[20],92.5%
same,"viability, T/C",[21],96%
same,"viability, T/C",[22],88.3%
same,"viability, T/C",[23],87.7%
same,"viability, T/C",[24],43.8%
same,"viability, T/C",[25],0.59%
same,"viability, T/C",[26],0.54%
same,"viability, T/C",[27],0.4%
same,"viability, T/C",[28],0.92%
same,"viability, T/C",[29],0.89%
same,"viability, T/C",[30],0.79%
same,"viability, T/C",[31],0.54%
same,"viability, T/C",[32],0.7%
same,"viability, T/C",[33],0.68%
same,"viability, T/C",[34],0.83%
same,"viability, T/C",[35],0.94%
same,"viability, T/C",[36],1.93%
same,"viability, T/C",[37],0.36%
same,"viability, T/C",[38],0.41%
same,"viability, T/C",[39],0.43%
same,"viability, T/C",[40],0.46%
same,"viability, T/C",[41],0.73%
same,"viability, T/C",[42],1.14%

# From PubChem BioAssay AID2060613 (Molecular Pharmacology Branch, DTP, NCI, 2025)
